Here are results for one molecule from patent US9067928B2 (Genentech, Inc., priority 2008, dated 2015).

In one test the target is T1, Bcl-xL (Homo sapiens, UniProt Q07817).
T1 construct: made in house
Nature of the test: TR-FRET binding assay, competition with F-Bak for Bcl-xL binding site. The following applies: GST-Bcl-xL, F-Bak probe. The procedure:
The measurement of competition of compounds of the invention with F-Bak for a Bcl-2 family protein (Bcl-xL) binding site using a Time Resolved Fluorescence Resonance Energy Transfer (TR-FRET) Binding Assay:
Test compounds were serially diluted in DMSO starting at 50 μM (2× starting concentration; 10% DMSO) and 10 μL transferred into a 384-well plate.
The samples are then mixed on a shaker for 1 minute then incubated for an additional 2 hours at room temperature. For each assay plate, a probe/antibody and protein/antibody/probe mixture were included as a negative and a positive control, respectively. Fluorescence was measured on the Envision (Perkin Elmer) using a 340/35 nm excitation filter and 520/525 (F-Bak) and 495/510 nm (Tb-labeled anti-his antibody) emission filters. Dissociation constants (Ki) were determined using Wang's equation (see, Wang, Z. X. An exact mathematical expression for describing competitive binding of two different ligands to a protein molecule. FEBS Lett. 1995 360:111-114). The TR-FRET assay can be performed in the presence of varying concentrations of human serum (HS) or fetal bovine serum (FBS).

Test [1] has as its system Mcl-1-/- mouse embryonic fibroblasts (MEF). Nature of the test: Cell viability assay for Mcl-1-/- mouse embryonic fibroblasts (CellTiter-Glo). The class given is cell-based. Conditions: Fibroblast, 1% Fetal Bovine Serum, read-out: MEF Mcl-1-/- KO cell viability results (EC50). An excerpt:
a. Cell Viability Assay for Mcl-1^−/− Mouse Embryonic Fibroblasts (MEF):
Neutralization of both […] and Mcl-1 anti-apoptotic proteins in normal cells is required before a cell undergoes apoptosis via the downstream Bax/Bak pathway See, Chen. L. et al. Mol. Cell (2005) 17, 393-403; Willis, S. N. et al. Genes Dev. (2005) 19, 1294-1305. A compound that only targets Bcl-xL should not affect normal cells, but could kill certain cancer cells if they rely more on Bcl-xL and less on other anti-apoptotic proteins, e.g. Mcl-1, for survival. To mirror this, compounds of the invention were tested for its effect on survival of wild type (wt) mouse embryo fibroblasts (MEFs), Bax/Bak double knockout (BB DKO) MEFs, MEFs that expressed Noxa, and MEFs that expressed Bad. Noxa specifically neutralizes Mcl-1. […] MEFs that express Noxa mirror cancer cell types that are reliant on Bcl-xL for survival and should be much more sensitive to killing by a Bcl-xL targeting compound than MEFs where both Bcl-xL and Mcl-1 are protective.
In this assay, Mcl-1^(−/−) cells were used to confirm that cell apoptosis in the presence of BH3 mimetic small molecules was due to predominantly Bcl-xL inactivation. This inactivation leaves Bax/Bak unconstrained and results in apoptosis. The […]-GLO Luminescent Cell Viability Assay is a homogeneous method of determining the number of viable cells in culture based on quantitation of the ATP present. The amount of ATP correlates with the presence of metabolically active cells such that following cell lysis the amount of ATP present is proportional to the amount of luminescence measured.
Mcl-1^(−/−) mouse embryonic fibroblasts (MEFs) are an adherent cell line prepared in house. MEFs were grown in Iwaki 75 cm^2 tissue culture flasks (cat #3123-075) with FMA media which consists of: • 89% DME Kelso • 10% heat-inactivated foetal calf serum (FCS) (Hyclone cat #SH30396.03) • 1% 10 mM asparagine (Fluka cat #11149) • 275 μl of a 1:2000 dilution of 2-mercaptoethanol is added to the final 500 ml volume of FMA (Sigma cat #M7522; diluted in MT-PBS)
FMA was stored at 4° C. and used at 37° C. MEFs were cultured in FMA media and harvested in MT-PBS and trypsin. For MEF cell viability assays, cells were seeded separately in plates with 10% FCS-FMA and 1% FCS-FMA. […]
Automated Systems that can be used in this assay include: 1) Multidrop—The MULTIDROP 384 (ThermoLabsystems) dispenser was used to dispense cells aseptically into the assay plates: 2) MiniTrak—The […] system from Perkin Elmer was used for titration of the compound plates; 3) Zymark—The ZYMARK SCICLONE ALH3000 System with 100 nL pintool head was used for compound addition to the cells; 4) EnVision—The ENVISION plate reader was used to measure the viability via the detection of the luminescence. […]
A general note: ATP-based viability assays read luminescence as a measure of living cells.

The term Ki denotes a dissociation constant, usually derived from enzyme kinetics or from competition with a known ligand.

T1 sequence (Q07817 whole entry, species assumed): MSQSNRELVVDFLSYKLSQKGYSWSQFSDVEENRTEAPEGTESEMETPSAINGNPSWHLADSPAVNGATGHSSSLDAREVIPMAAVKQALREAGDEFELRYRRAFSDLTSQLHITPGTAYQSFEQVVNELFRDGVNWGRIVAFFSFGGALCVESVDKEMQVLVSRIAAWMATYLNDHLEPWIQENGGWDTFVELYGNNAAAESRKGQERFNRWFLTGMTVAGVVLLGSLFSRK

`O=C(O)c1nc(-c2ccc3c(c2)N(C(=O)Nc2nc4ccccc4s2)CCC3)sc1-c1ccc(-c2ccccc2)cc1` [Example 92, 2-(1-(benzo[d]thiazol-2-ylcarbamoyl)-1,2,3,4-tetrahydroquinolin-7-yl)-5-(biphenyl-4-yl)thiazole-4-carboxylic acid] showed a Ki on Bcl-xL of 0.0005 µM. Besides, the EC50 in test [1] is 0.15 µM.
